Experimental findings from article PMC7156458, “Synthetic biology based construction of biological activity-related library of fungal decalin-containing diterpenoid pyrones” (Nature Communications, 2020) are described below.

Holding throughout (test): cells
Common to all, as to parameters: species or system JFCR39 human cancer cell lines; JFCR39 panel growth inhibition, sulforhodamine B total protein after 48 h

In one test the test system is SK-OV-3. The conditions noted are these: for GI50: Homo sapiens, SK-OV-3, 48 h. The method, boiled down: (§1)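 Cells are grown in kanamycin-supplemented RPMI-1640 with 5% FBS (37°C, humidified 5% CO2), then treated with compound for 48 hours. Antiproliferative effect is scored by sulforhodamine B protein staining and expressed as GI50, duplicate determinations.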
The subject of the next test is A549. The conditions noted are these: for GI50: Homo sapiens, A549, 48 h. The essentials:
as §1

A further test concerns HCT-116. The conditions noted are these: for GI50: Homo sapiens, HCT-116, 48 h. The essentials: as §1
For the next test, the system named is DMS273. The settings on record: for GI50: Homo sapiens, DMS-273, 48 h; for Log GI50: 48 h, inhibitor, Log GI50, 48 h. The essentials:
as §1

The subject of the next test is HBC-5. The conditions noted are these: for GI50: HBC5, 48 h. The method, boiled down:
as §1

Another test concerns MKN74. The conditions noted are these: for GI50: Homo sapiens, MKN-74, 48 h; for Log GI50: 48 h, inhibitor, Log GI50, 48 h. The essentials:
as §1

The subject of another test is MKN45. The conditions noted are these: for GI50: Homo sapiens, MKN-45, 48 h. The method, boiled down: as §1
For the next test, the system named is NCI-H23. The settings on record: for GI50: Homo sapiens, NCI-H23, 48 h. The essentials:
as §1

In a further test the test system is NCI-H226. The conditions noted are these: for GI50: Homo sapiens, NCI-H226, 48 h; for Log GI50: 48 h, inhibitor, Log GI50, 48 h. The essentials: as §1
The next test relates to NCI-H460. The conditions noted are these: for GI50: Homo sapiens, NCI-H460, 48 h; for Log GI50: 48 h, inhibitor, Log GI50, 48 h. The essentials: as §1
The subject of another test is NCI-H522. The conditions noted are these: for GI50: Homo sapiens, NCI-H522, 48 h. The method, boiled down:
as §1

The next test has as its system LOX-IMVI. The settings on record: 48 h; for GI50: Homo sapiens, LOX IMVI; for Log GI50: inhibitor, Log GI50, 48 h. The essentials: as §1
Another test relates to KM-12. The settings on record: for GI50: Homo sapiens, KM12, 48 h. The essentials:
as §1

The next test concerns OVCAR-5. The conditions noted are these: for GI50: Homo sapiens, OVCAR-5, 48 h. The method, boiled down:
as §1

In the next test the test system is PC-3. The conditions noted are these: for GI50: Homo sapiens, PC-3, 48 h. The method, boiled down:
as §1

The next test relates to OVCAR-8. The conditions noted are these: for GI50: Homo sapiens, OVCAR-8, 48 h. The essentials: as §1
The next test relates to SNB-78. The settings on record: for GI50: Homo sapiens, SNB-78, 48 h. The essentials:
as §1

The test system of the next test is DU-145. The conditions noted are these: for GI50: Homo sapiens, DU-145, 48 h. The essentials:
as §1

The next test has as its system MKN1. The settings on record: for GI50: Homo sapiens, MKN-1, 48 h. The method, boiled down:
as §1

A further test deals with ACHN. The conditions noted are these: 48 h; for GI50: Homo sapiens, ACHN; for Log GI50: inhibitor, Log GI50, 48 h. The method, boiled down:
as §1

A further test deals with HCT-15. The conditions noted are these: for GI50: Homo sapiens, HCT-15, 48 h; for Log GI50: 48 h, inhibitor, Log GI50, 48 h. The method, boiled down:
as §1

Setting [1] is: 48 h, inhibitor, Log GI50, 48 h.

A word on the GI50: it is the concentration that inhibits growth by half. In the case of `C=C1CC[C@@H]2[C@](C)(CC[C@H]3O[C@H](C=C(C)C)C[C@@]23C)[C@@H]1Cc1c(OC)oc(CO)c(C(=O)OC)c1=O` [Compound 21], the GI50 with SK-OV-3 was 17.3 µM; in the test on A549, 18.5 µM; in the test with HCT-116, 15 µM; in the test on DMS273, 16.6 µM; in the test on HBC-5, 14.7 µM; in the test on MKN74, 19.8 µM. Moreover, the 50% growth inhibitory concentration (GI50) was 16.2 µM with MKN45; 11.1 µM with NCI-H23; 18.2 µM in the test on NCI-H226; 12.1 µM in the test on NCI-H460; 8.73 µM in the test with NCI-H522; 15.1 µM with LOX-IMVI. The GI50 in the test with KM-12 is 18.2 µM; in the test on OVCAR-5, 16.6 µM; in the test with PC-3, 14.7 µM; in the test on OVCAR-8 it was 16.7 µM; in the test on SNB-78 it was 18.7 µM; in the test with DU-145 it was 15.7 µM. In addition, the 50% growth inhibitory concentration (GI50) in the test on MKN1 is 18.5 µM; with ACHN, 12.2 µM; in the test on HCT-15, 17.6 µM.
As for `C=C1CCC2C(C)(CCC=C(C)C)C(O)CCC2(C)C1Cc1c(OC)oc(CO)c(C)c1=O` (stereo not drawn) [Compound 12], the GI50 with SK-OV-3 is 12.6 µM; in the test on A549, 6.24 µM; in the test on HCT-116 it was 2.63 µM; in the test with HBC-5, 8.73 µM; in the test with MKN45, 13.4 µM; with NCI-H23, 1.95 µM. Moreover, the GI50 in the test with NCI-H522 is 1.46 µM; in the test on KM-12, 12.9 µM; with OVCAR-5, 19.5 µM; in the test on PC-3, 4.92 µM; in the test with OVCAR-8, 5.64 µM; in the test on SNB-78, 13.3 µM. Moreover, the GI50 with DU-145 is 11.8 µM; with MKN1, 13.7 µM. Also, the “Log GI50” value in the test with DMS273 is listed as -7.063 M; with MKN74 it was -5.381 M; with NCI-H226 it was -4.935 M; in the test on NCI-H460, -7.132 M; in the test with LOX-IMVI, -6.218 M; with ACHN, -4.976 M. In addition, the “Log GI50” value in the test on HCT-15 is given as -5.533 M.
With `C=C1CCC2C(C)(CCC=C(C)C)C(O)CCC2(C)C1Cc1c(OC)oc(CO)c(C(=O)OC)c1=O` (stereo not drawn) [Compound 13], the GI50 in the test on SK-OV-3 is 16.3 µM; in the test on A549, 19.8 µM; in the test on HCT-116 it was 18.4 µM; in the test on DMS273 it was 16.3 µM; in the test on HBC-5 it was 15.1 µM; in the test with MKN74, 14.8 µM. Besides, the concentration for 50% growth inhibition (GI50) in the test with MKN45 was 16.7 µM; in the test with NCI-H23, 10.9 µM; in the test on NCI-H226 it was 16.9 µM; in the test with NCI-H460, 11.2 µM; in the test with NCI-H522, 6.85 µM; in the test on LOX-IMVI, 13.7 µM. Further, the 50% growth inhibitory concentration (GI50) in the test with KM-12 is 19.1 µM; with OVCAR-5, 17.3 µM; in the test on PC-3, 14.8 µM; in the test on OVCAR-8 it was 17.1 µM; with SNB-78, 17.3 µM; in the test with DU-145 it was 15.2 µM. Further, the values for the GI50 in the test on MKN1, in the test on ACHN and in the test on HCT-15 were 18.8 µM, 12 µM and 18.5 µM, respectively.
As for `C=C1CCC2C(C)(CCC=C(C)C)C(O)CCC2(C)C1Cc1c(OC)oc(CO)c(C)c1=O` (stereo not drawn) [Compound 16], the “Log GI50” value in the test with SK-OV-3 (setting [1]) is on record as -4.993 M; in the test on A549 (setting [1]), -5.056 M; in the test on HCT-116 (setting [1]), -5.292 M; with DMS273 it was -5.822 M; with HBC-5 (setting [1]), -4.986 M; in the test on MKN74 it was -4.995 M. The “Log GI50” value with MKN45 (setting [1]) was -4.853 M; with NCI-H23 (setting [1]), -5.618 M; in the test on NCI-H226, -5.269 M; with NCI-H460, -6.167 M; in the test on NCI-H522 (setting [1]), -5.659 M; in the test with LOX-IMVI, -5.224 M. Further, the “Log GI50” value in the test on KM-12 (setting [1]) is given as -4.862 M; with OVCAR-5 (setting [1]), -4.859 M; in the test on PC-3 (setting [1]), -5.211 M; in the test with OVCAR-8 (setting [1]) it was -5.076 M; in the test with SNB-78 (setting [1]), -4.939 M; in the test with DU-145 (setting [1]) it was -4.962 M. Also, the “Log GI50” value with MKN1 (setting [1]) is on record as -4.787 M; with ACHN it was -5.541 M; with HCT-15, -5.220 M.
